Test results: US20060069132A1, “Azolecarboxamide herbicides” (priority 2004, published 2006)

How the values were obtained:
[1] = test system: barnyardgrass; assay: Test A pre-/postemergence herbicide test; type: in vivo, Echinochloa crus-galli
Method in brief: (§1)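 Visual injury rating on a 0–100 scale (0 no effect, 100 complete control) versus untreated controls, about ten days after treatment in greenhouse. Pre: directed soil spray onto seeded sandy loam. Post: spray to runoff on plants 2–10 cm tall at one- to two-leaf stage.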

[2] = test system: large crabgrass; assay: Test A pre-/postemergence herbicide test; type: in vivo, Digitaria sanguinalis
Method in brief: as §1

[3] = test system: giant foxtail; assay: Test A pre-/postemergence herbicide test; type: in vivo, Setaria faberi
Method in brief: as §1

[4] = test system: morningglory; assay: Test A pre-/postemergence herbicide test; type: in vivo, Ipomoea spp.
Method in brief: as §1

[5] = test system: redroot pigweed; assay: Test A pre-/postemergence herbicide test; type: in vivo, Amaranthus retroflexus
Method in brief: as §1

[6] = test system: velvetleaf; assay: Test A pre-/postemergence herbicide test; type: in vivo, Abutilon theophrasti
Method in brief: as §1

[7] = test system: barnyardgrass; assay: Test B pre-/postemergence herbicide test; type: in vivo, Echinochloa crus-galli
Method in brief: (§2)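 Visual rating, 0 (no effect) to 100 (complete control), versus untreated controls after 13–15 d in greenhouse. Pre- and postemergence applications (postemergence plants 2–18 cm, 1–4 leaves); flooded paddy arm at 2-leaf stage. Compounds in non-phytotoxic solvent plus surfactant.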

[8] = test system: Surinam grass; assay: Test B pre-/postemergence herbicide test; type: in vivo, Urochloa decumbens
Method in brief: (§3)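 Formulation: non-phytotoxic solvent mix with surfactant. Timing: preemergence on seed and postemergence on 2–18 cm plants, applied concurrently. Readout after 13–15 d greenhouse: visual 0–100 control rating against controls.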

[9] = test system: cocklebur; assay: Test B pre-/postemergence herbicide test; type: in vivo, Xanthium strumarium
Method in brief: as §2

[10] = test system: corn; assay: Test B pre-/postemergence herbicide test; type: in vivo, Zea mays
Method in brief: as §3

[11] = test system: large crabgrass; assay: Test B pre-/postemergence herbicide test; type: in vivo, Digitaria sanguinalis
Method in brief: as §3

[12] = test system: giant foxtail; assay: Test B pre-/postemergence herbicide test; type: in vivo, Setaria faberi
Method in brief: as §3

[13] = test system: lambsquarters; assay: Test B pre-/postemergence herbicide test; type: in vivo, Chenopodium album
Method in brief: as §3

[14] = test system: morningglory; assay: Test B pre-/postemergence herbicide test; type: in vivo, Ipomoea coccinea
Method in brief: as §2

[15] = test system: pigweed; assay: Test B pre-/postemergence herbicide test; type: in vivo, Amaranthus retroflexus
Method in brief: as §3

[16] = test system: rice; assay: Test B pre-/postemergence herbicide test; type: in vivo, Oryza sativa; conditions: preemergence
Method in brief: as §3

[17] = test system: velvetleaf; assay: Test B pre-/postemergence herbicide test; type: in vivo, Abutilon theophrasti
Method in brief: as §3

[18] = test system: blackgrass; assay: Test B postemergence herbicide test; type: in vivo, Alopecurus myosuroides; conditions: scale 0 (no effect) to 100 (complete control)
Method in brief: (§4)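 Visual ratings, 0 (no effect) to 100 (complete control), made versus controls after 13–15 d greenhouse. Paddy plants treated at 2-leaf stage; postemergence plants at 1- to 4-leaf stage, 2–18 cm tall.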

[19] = test system: wheat; assay: Test B postemergence herbicide test; type: in vivo, Triticum aestivum; set-up: key to Wheat plant response rating: 0 = no effect, 100 = complete control; conditions: scale 0 (no effect) to 100 (complete control)
Method in brief: (§5)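 Plants grow to 1- to 4-leaf stage (2–18 cm) for postemergence spraying, or to 2-leaf stage for the paddy test. Formulated compound is applied. Greenhouse holding lasts 13–15 days. Response is scored visually relative to controls, 0 no effect to 100 complete control; a dash means no result.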

[20] = test system: wild oat; assay: Test B postemergence herbicide test; type: in vivo, Avena fatua; conditions: scale 0 (no effect) to 100 (complete control)
Method in brief: as §5

[21] = test system: rice; assay: Test B flooded paddy test; type: in vivo, Oryza sativa; conditions: 1000 g ai/ha, visual rating, scale 0 to 100 (0 no effect, 100 complete control), 13 to 15 days
Method in brief: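 Scale 0–100: zero equals no visible effect, 100 complete control, judged by eye relative to controls. Timing: 13 to 15 days in greenhouse post-treatment. Growth stage at spraying: two leaves (paddy) or one to four leaves, 2–18 cm (postemergence).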

[22] = test system: small flower umbrella sedge; assay: Test B flooded paddy test; type: in vivo, Cyperus difformis; conditions: 1000 g ai/ha, visual rating, scale 0 to 100 (0 no effect, 100 complete control), 13 to 15 days
Method in brief: as §4

[23] = test system: ducksalad; assay: Test B flooded paddy test; type: in vivo, Heteranthera limosa; conditions: 1000 g ai/ha, visual rating, scale 0 to 100 (0 no effect, 100 complete control), 13 to 15 days
Method in brief: as §4

[24] = test system: barnyardgrass; assay: Test B flooded paddy test; type: in vivo, Echinochloa crus-galli; conditions: 1000 g ai/ha, visual rating, scale 0 to 100 (0 no effect, 100 complete control), 13 to 15 days
Method in brief: as §4

[25] = Postemergence, 500 g ai/ha, 0 to 100 scale, 0 no effect, 100 complete control
[26] = Postemergence, 2000 g ai/ha, 0 to 100 scale, 0 no effect, 100 complete control
[27] = Preemergence, 500 g ai/ha, visual rating, 0 to 100 scale (0 no effect, 100 complete control)
[28] = Preemergence, 2000 g ai/ha, visual rating, 0 to 100 scale (0 no effect, 100 complete control)
[29] = 500 g ai/ha, visual rating 0-100, 0 no effect, 100 complete control, preemergence
[30] = Postemergence, 500 g ai/ha, visual rating after 13 to 15 days, scale 0 (no effect) to 100 (complete control)
[31] = postemergence, 125 g ai/ha, visual rating, scale 0 (no effect) to 100 (complete control)
[32] = preemergence, 125 g ai/ha, 0 to 100 scale, 0 is no effect, 100 is complete control
[33] = Postemergence, 500 g ai/ha, visual rating after 13 to 15 days
[34] = postemergence, 125 g ai/ha, visual rating

CCn1nc(C(C)(C)C)cc1C(=O)Nc1cccc(C(=O)OC(C)(C)C)c1 [Compound 98]
0: Barnyardgrass plant response rating [1, 25] | Plant response rating, Barnyardgrass [1, 26] | Barnyardgrass plant response rating [1, 27] | Barnyardgrass plant response rating [1, 28] | Crabgrass, Large plant response rating [2, 25] | Plant response rating, Crabgrass, Large [2, 26] | Crabgrass, Large plant response rating [2, 27] | Crabgrass, Large plant response rating [2, 28] | Foxtail, Giant plant response rating [3, 25] | Plant response rating, Foxtail, Giant [3, 26] | Foxtail, Giant plant response rating [3, 27] | Foxtail, Giant plant response rating [3, 28] | Morningglory plant response rating [4, 25] | Plant response rating, Morningglory [4, 26] | Morningglory plant response rating [4, 27] | Morningglory plant response rating [4, 28] | Pigweed plant response rating [5, 27] | Pigweed plant response rating [5, 28] | Velvetleaf plant response rating [6, 25] | Velvetleaf plant response rating [6, 27] | Velvetleaf plant response rating [6, 28] | Plant response rating, Barnyardgrass [7, 29] | Plant response rating, Barnyardgrass [7, 32] | Plant response rating, Surinam Grass [8, 29] | Plant response rating, Surinam Grass [8, 32] | Plant response rating, Cocklebur [9, 29] | Cocklebur plant response rating [9, 31] | Plant response rating, Cocklebur [9, 32] | Plant response rating, Corn [10, 29] | Plant response rating, Corn [10, 32] | Plant response rating, Crabgrass, Large [11, 29] | Plant response rating, Crabgrass, Large [11, 32] | Plant response rating, Foxtail, Giant [12, 29] | Plant response rating, Foxtail, Giant [12, 32] | Plant response rating, Lambsquarters [13, 29] | Plant response rating, Lambsquarters [13, 32] | Plant response rating, Morningglory [14, 29] | Morningglory plant response rating [14, 31] | Plant response rating, Morningglory [14, 32] | Plant response rating, Pigweed [15, 29] | Plant response rating, Pigweed [15, 32] | Plant response rating, Rice ([16]; 500 g ai/ha, visual rating 0-100, 0 no effect, 100 complete control) | Plant response rating, Rice ([16]; 125 g ai/ha, 0 to 100 scale, 0 is no effect, 100 is complete control) | Plant response rating, Velvetleaf [17, 29] | Plant response rating, Velvetleaf [17, 32] | Plant response rating, Blackgrass [18, 33] | Blackgrass plant response rating [18, 34] | Plant response rating, Wheat [19, 33] | Wheat plant response rating [19, 34] | Oat, Wild plant response rating [20, 34] | Rice plant response rating [21] | Sedge, Umbrella plant response rating [22] | Ducksalad plant response rating [23] | Barnyardgrass plant response rating [24]
10: Plant response rating, Pigweed [5, 26] | Plant response rating, Barnyardgrass [7, 30] | Barnyardgrass plant response rating [7, 31] | Surinam Grass plant response rating [8, 31] | Plant response rating, Corn [10, 30] | Corn plant response rating [10, 31] | Plant response rating, Foxtail, Giant [12, 30] | Foxtail, Giant plant response rating [12, 31] | Pigweed plant response rating [15, 31] | Plant response rating, Velvetleaf [17, 30] | Velvetleaf plant response rating [17, 31] | Plant response rating, Oat, Wild [20, 33]
20: Plant response rating, Surinam Grass [8, 30] | Plant response rating, Cocklebur [9, 30] | Plant response rating, Crabgrass, Large [11, 30] | Crabgrass, Large plant response rating [11, 31] | Lambsquarters plant response rating [13, 31] | Plant response rating, Morningglory [14, 30]
5: Pigweed plant response rating [5, 25] | Plant response rating, Velvetleaf [6, 26]
30: Plant response rating, Lambsquarters [13, 30] | Plant response rating, Pigweed [15, 30]
